# Assay results published in patent US20260256794A1, “Oral Dynamine Formulations and Methods Therefor” (Ortho-Nutra, LLC, priority 2023, published 2026).
# Experiments:
# Assay type in all cases: in vivo, human
# subjects [1] = experiment: VAS-Mood; set-up: VAS-Mood rating, Mean / VAS-Mood changes from baseline, Mean Difference ± SE / VAS-Mood area under the curve, Mean Difference ± SE / VAS-Mood area under the curve, Mean: scale not given here
# Experimental: (§1) The inventors have discovered various compositions and methods of improving various indices of neurological and neuroenergetic functions by administering 100 mg (once daily) dosages of DYNAMINE™ (dosage between 1.0 and 1.4 mg/kg) as described in the following:
# (§2) All neuroenergetic tests as listed below were performed and data were collected after 0 and 4 days of assigned supplements (with acute effects also measured at day 4 over 180 minutes):
# (§3) All VAS Measurement (Energy, Sustained Energy, Mental Stamina, Ability to Focus, Ability to Concentrate, Motivation to Accomplish Difficult Tasks, Drive, Vigor, Level of Positive Outlook, Mood, Feelings of Well-Being, Tolerate Stress); Day 0: Two tests were completed. The average of both scores was computed and this value was used in all statistical analysis. Day 4 (0 minutes after ingesting dose #4): Two tests were completed. The average of both scores was computed and this value was used in all statistical analysis. Day 4 (60, 120, and 180 minutes after ingesting dose #4): One test was completed at each time point.
# (§4) Neuroenergic parameters are inherently subjective, nevertheless significant in human behavior and well-being. To allow for a standardization among different subjects, the following experiments were performed using a visual analog scale using anchor statements (lowest possible/highest possible) in which subjects were asked to rate their subjective experience with respect to the specific neuroenergic parameters tested.
# VAS-Mood: In this subjective test, subjects were asked to rate their personal level of energy on a VAS scale using the prompt of “My mood right now is . . . ” (with rating lowest possible to highest possible)”. Results were collected as noted above and Table 31 provides exemplary results for Day 0 versus Day 4 ratings, whereas Table 32 provides exemplary acute results measured at Day 4 over a duration of 180 minutes.
# subjects [2] = experiment: Stroop-Total Score
# Experimental: as §1, §2
# (§5) Stroop Color Matching Test (Total Score, Accuracy %, Average Score): Day 0: Two blocks of three tests were completed. Each block of three tests was separated by 10 minutes. The median of each block was taken and then those two scores were averaged. This value was used in all statistical analysis. Day 4: Three tests were completed at four time points: after 0, 60, 120, and 180 minutes of taking dose #4. The median of the three tests at each time point was used in all statistical analysis.
# (§6) The Stroop Color and Word Test (SCWT, or Stroop test) is a neuropsychological test extensively used to assess the ability to inhibit cognitive interference that occurs when the processing of a specific stimulus feature impedes the simultaneous processing of a second stimulus attribute, well-known as the Stroop effect (see e.g., Front Psychol. 2017; 8:557). Here, subjects were required to read three different tables as fast as possible. Two of them represent the “congruous condition” in which participants are required to read names of colors (‘color-words’) printed in black ink (W) and name different color patches (C). However, in the third table, the color-word (CW) condition, color-words are printed in an inconsistent color ink (e.g., the word “red” is printed in green ink). In this incongruent condition, participants are required to name the color of the ink instead of reading the word. In other words, the participants are required to perform a less automated task (i.e., naming ink color) while inhibiting the interference arising from a more automated task (i.e., reading the word). This difficulty in inhibiting the more automated process is called the Stroop effect. The Stroop test is predominantly used to measure the ability to inhibit cognitive interference. However, some sources also report its application to measure other cognitive functions such as attention, processing speed, cognitive flexibility, and working memory.
# Stroop-Total Score: The results for this test were based on a total score comparing performance between Day 0 and Day 4, with Day 4 including tests over a duration of 180 minutes. Results were collected as noted above and Table 41 provides exemplary results for Day 0 versus Day 4 ratings, whereas Table 42 provides exemplary acute results measured at Day 4 over a duration of 180 minutes.
# subjects [3] = experiment: Stroop-Average Time; details: unit assumed
# Experimental: as §1, §2, §5, §6
# Stroop-Average Time: The results for this test were based on an average time score comparing performance between Day 0 and Day 4, with Day 4 including tests over a duration of 180 minutes. Results were collected as noted above and Table 45 provides exemplary results for Day 0 versus Day 4 ratings, whereas Table 46 provides exemplary acute results measured at Day 4 over a duration of 180 minutes.
# subjects [4] = experiment: VAS-Vigor; set-up: VAS-Vigor rating, Mean / VAS-Vigor changes from baseline, Mean Difference ± SE / VAS-Vigor area under the curve, Mean Difference ± SE / VAS-Vigor area under the curve, Mean: scale not given here
# Experimental: as §1, §2, §3, §4
# VAS-Vigor: In this subjective test, subjects were asked to rate their personal level of energy on a VAS scale using the prompt of “My level of vigor right now is . . . ” (with rating lowest possible to highest possible)”. Results were collected as noted above and Table 25 provides exemplary results for Day 0 versus Day 4 ratings, whereas Table 26 provides exemplary acute results measured at Day 4 over a duration of 180 minutes. […] Of note, it should be appreciated that drive is also often a function of dopamine activation. As above, is it therefore contemplated that methylliberine may also have an agonist effect on dopamine receptors or signaling.
# [5] = 100 mg once daily, Day 4, 0-180 min
# [6] = 100 mg once daily, Day 4, 0-180 min, vs Group A (placebo)
# [7] = 100 mg once daily, Day 4, 0 min after dose #4
# [8] = 100 mg once daily, Day 4, 60 min-0 min, vs Group A (placebo)
# [9] = 100 mg once daily, Day 4, 60 min after dose #4
# [10] = 100 mg once daily, Day 4, 120 min-0 min, vs Group A (placebo)
# [11] = 100 mg once daily, Day 4, 120 min after dose #4
# [12] = 100 mg once daily, Day 4, 180 min-0 min, vs Group A (placebo)
# [13] = 100 mg once daily, Day 4, 180 min after dose #4
structure (smiles),measurement,setting,value
"COc1nc2c(c(=O)n1C)n(C)c(=O)n2C [methylliberine, 2-methoxy-1,7,9-trimethylpurine-6,8-dione]","VAS-Mood area under the curve, Mean",subjects [1]; [5],1220
same,"VAS-Mood area under the curve, Mean Difference ± SE",subjects [1]; [6],37.4 ± 250.7
same,"VAS-Mood area under the curve, effect size d",subjects [1]; [6],0.12
same,"VAS-Mood rating, Mean",subjects [1]; [7],6.1
same,"VAS-Mood changes from baseline, Mean Difference ± SE",subjects [1]; [8],0.38 ± 0.18
same,"VAS-Mood changes from baseline, effect size d",subjects [1]; [8],0.43
same,"VAS-Mood rating, Mean",subjects [1]; [9],6.7
same,"VAS-Mood changes from baseline, Mean Difference ± SE",subjects [1]; [10],0.45 ± 0.27
same,"VAS-Mood changes from baseline, effect size d",subjects [1]; [10],0.41
same,"VAS-Mood rating, Mean",subjects [1]; [11],7.0
same,"VAS-Mood changes from baseline, Mean Difference ± SE",subjects [1]; [12],0.72 ± 0.30
same,"VAS-Mood changes from baseline, effect size d",subjects [1]; [12],0.65
same,"VAS-Mood rating, Mean",subjects [1]; [13],7.1
same,"VAS-Mood rating, Mean",subjects [1]; Day 0 (before supplementation),6.5
same,"Stroop total score, Mean",subjects [2]; [7],127.4
same,"Stroop total score, Mean",subjects [2]; [9],131.5
same,"Stroop total score, Mean",subjects [2]; [11],132.1
same,"Stroop total score, Mean",subjects [2]; [13],134.8
same,"Stroop total score, Mean",subjects [2]; Day 0 (before supplementation),125.0
same,"Stroop average time, Mean",subjects [3]; [7],0.961 s
same,"Stroop average time, Mean",subjects [3]; [9],0.929 s
same,"Stroop average time, Mean",subjects [3]; [11],0.921 s
same,"Stroop average time, Mean",subjects [3]; [13],0.908 s
same,"Stroop average time, Mean",subjects [3]; Day 0 (before supplementation),0.983 s
same,"VAS-Vigor area under the curve, Mean",subjects [4]; [5],1112
same,"VAS-Vigor area under the curve, Mean Difference ± SE",subjects [4]; [6],21.8 ± 41.5
same,"VAS-Vigor area under the curve, effect size d",subjects [4]; [6],0.07
same,"VAS-Vigor rating, Mean",subjects [4]; [7],5.8
same,"VAS-Vigor changes from baseline, Mean Difference ± SE",subjects [4]; [8],0.02 ± 0.23
same,"VAS-Vigor changes from baseline, effect size d",subjects [4]; [8],0.02
same,"VAS-Vigor rating, Mean",subjects [4]; [9],6.2
same,"VAS-Vigor changes from baseline, Mean Difference ± SE",subjects [4]; [10],−0.12 ± 0.25
same,"VAS-Vigor changes from baseline, effect size d",subjects [4]; [10],0.13
same,"VAS-Vigor rating, Mean",subjects [4]; [11],6.3
same,"VAS-Vigor changes from baseline, Mean Difference ± SE",subjects [4]; [12],0.43 ± 0.28
same,"VAS-Vigor changes from baseline, effect size d",subjects [4]; [12],−0.41
same,"VAS-Vigor rating, Mean",subjects [4]; [13],6.4
same,"VAS-Vigor rating, Mean",subjects [4]; Day 0 (before supplementation),5.8
